Assay results as given in ChEMBL document CHEMBL5030542, “Pillar[5]arene-Based Polycationic Glyco[2]rotaxanes Designed as Pseudomonas aeruginosa Antibiofilm Agents” (J Med Chem, 2021).
Active and inactive are the calls of the source. The rule behind the calls is not given here.

Experiments:
Pseudomonas aeruginosa [1] = assay: Binding affinity to recombinant Pseudomonas aeruginosa LecA expressed in Escherichia coli assessed as change in entropy by isothermal titration calorimetry
[2] = Binding affinity to recombinant Pseudomonas aeruginosa LecA expressed in Escherichia coli assessed as dissociation constant by isothermal titration calorimetry
Pseudomonas aeruginosa [3] = assay: Binding affinity to recombinant Pseudomonas aeruginosa LecA expressed in Escherichia coli assessed as gibbs free energy change by isothermal titration calorimetry
[4] = molecular target: Fucose-binding lectin PA-IIL (Pseudomonas aeruginosa (strain ATCC 15692 / DSM 22644 / CIP 104116 / JCM14847 / LMG 12228 / 1C / PRS 101 / PAO1)) (UniProt Q9HYN5); assay: Binding affinity to recombinant Pseudomonas aeruginosa LecB expressed in Escherichia coli assessed as gibbs free energy change by isothermal titration calorimetry
Sequence of Fucose-binding lectin PA-IIL (Pseudomonas aeruginosa (strain ATCC 15692 / DSM 22644 / CIP 104116 / JCM14847 / LMG 12228 / 1C / PRS 101 / PAO1)) (Q9HYN5 as listed by the source): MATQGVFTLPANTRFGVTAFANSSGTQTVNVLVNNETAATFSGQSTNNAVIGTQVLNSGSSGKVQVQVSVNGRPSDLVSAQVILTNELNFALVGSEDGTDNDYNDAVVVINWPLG

Pseudomonas aeruginosa [5] = assay: Anti-bioflim activity against Pseudomonas aeruginosa PAO1 assessed as inhibition of bioflim formation incubated for 24 hrs by crystal violet staining based assay; type: functional
[6] = molecular target: Fucose-binding lectin PA-IIL (Pseudomonas aeruginosa (strain ATCC 15692 / DSM 22644 / CIP 104116 / JCM14847 / LMG 12228 / 1C / PRS 101 / PAO1), UniProt Q9HYN5); assay: Binding affinity to recombinant Pseudomonas aeruginosa lecB expressed in Escherichia coli assessed as dissociation constant by isothermal titration calorimetry
Sequence of Fucose-binding lectin PA-IIL (Q9HYN5 whole entry): as the sequence (Q9HYN5 as listed by the source) above

Pseudomonas aeruginosa [7] = assay: Antibacterial activity against Pseudomonas aeruginosa PAO1 assessed as inhibition of bacterial growth for complete inhibition of bacterial growth incubated for 24 hrs; type: functional
[8] = molecular target: Fucose-binding lectin PA-IIL (Pseudomonas aeruginosa (strain ATCC 15692 / DSM 22644 / CIP 104116 / JCM14847 / LMG 12228 / 1C / PRS 101 / PAO1)) (UniProt Q9HYN5); assay: Binding affinity to recombinant Pseudomonas aeruginosa LecB expressed in Escherichia coli assessed as change in enthalpy by isothermal titration calorimetry
Pseudomonas aeruginosa [9] = assay: Anti-bioflim activity against Pseudomonas aeruginosa PAO1 assessed as inhibition of bioflim formation measured at MBIC50 concentration incubated for 24 hrs by crystal violet staining based assay; type: functional
[10] = molecular target: Fucose-binding lectin PA-IIL (Pseudomonas aeruginosa (strain ATCC 15692 / DSM 22644 / CIP 104116 / JCM14847 / LMG 12228 / 1C / PRS 101 / PAO1)) (UniProt Q9HYN5); assay: Binding affinity to recombinant Pseudomonas aeruginosa LecB expressed in Escherichia coli assessed as change in entropy by isothermal titration calorimetry
Pseudomonas aeruginosa [11] = assay: Binding affinity to recombinant Pseudomonas aeruginosa LecA expressed in Escherichia coli assessed as change in enthalpy by isothermal titration calorimetry

Row | -TΔS (Pseudomonas aeruginosa [1]) [kcal/mol] | deltaG (Pseudomonas aeruginosa [3]) [kJ/mol] | deltaG [4] [kJ/mol] | Kd [6] [nM] | MIC (Pseudomonas aeruginosa [7]) [µM] | deltaH [8] [kJ/mol] | deltaS [10] [kJ/mol] | deltaH (Pseudomonas aeruginosa [11]) [kJ/mol] | deltaS (Pseudomonas aeruginosa [1]) [kJ/mol] | Structure (SMILES) | Kd [2] [nM] | MBIC50 (Pseudomonas aeruginosa [5]) [µM] | MBIC50 (Pseudomonas aeruginosa [9]) | inhibition (INH) (Pseudomonas aeruginosa [9]) [%]
1 | 16.6 | -35.4 | -36.1 | 474 | > 150 | -61.6 | 25.4 | -105 | – | C[C@@H]1O[C@@H](OCCOCCn2cc(COCC(COCc3cn(CCOCCO[C@@H]4O[C@@H](C)[C@@H](O)[C@@H](O)[C@@H]4O)nn3)N=[N+]=[N-])nn2)[C@@H](O)[C@H](O)[C@@H]1O.OC[C@H]1O[C@@H](OCc2cn(CCCOc3cc4c(OCCn5cc(CO[C@@H]6O[C@H](CO)[C@H](O)[C@H](O)[C@H]6O)nn5)cc3Cc3cc(OCCn5cc(CO[C@@H]6O[C@H](CO)[C@H](O)[C@H](O)[C@H]6O)nn5)c(cc3OCCn3cc(CO[C@@H]5O[C@H](CO)[C@H](O)[C@H](O)[C@H]5O)nn3)Cc3cc(OCCn5cc(CO[C@@H]6O[C@H](CO)[C@H](O)[C@H](O)[C@H]6O)nn5)c(cc3OCCn3cc(CO[C@@H]5O[C@H](CO)[C@H](O)[C@H](O)[C@H]5O)nn3)Cc3cc(OCCn5cc(CO[C@@H]6O[C@H](CO)[C@H](O)[C@H](O)[C@H]6O)nn5)c(cc3OCCn3cc(CO[C@@H]5O[C@H](CO)[C@H](O)[C@H](O)[C@H]5O)nn3)Cc3cc(OCCCn5cc(CO[C@@H]6O[C@H](CO)[C@H](O)[C@H](O)[C@H]6O)nn5)c(cc3OCCn3cc(CO[C@@H]5O[C@H](CO)[C@H](O)[C@H](O)[C@H]5O)nn3)C4)nn2)[C@H](O)[C@@H](O)[C@H]1O | 646 | >150 | inactive | –
2 | – | – | – | – | – | – | – | – | – | NC[C@H]1O[C@H](O[C@H]2[C@H](O)[C@@H](O[C@H]3O[C@H](CO)[C@@H](O)[C@H](N)[C@H]3O)[C@H](N)C[C@@H]2N)[C@H](N)C[C@@H]1O [TOBRAMYCIN] | – | 2 | – | 92
3 | – | -24.3 | – | – | – | – | – | -19 | – | CO[C@@H]1O[C@H](CO)[C@H](O)[C@H](O)[C@H]1O | 55700 | – | – | –
4 | – | -39.1 | – | – | – | – | – | -157 | 118 | OC[C@H]1O[C@@H](OCc2cn(CCOc3cc4c(OCCn5cc(CO[C@@H]6O[C@H](CO)[C@H](O)[C@H](O)[C@H]6O)nn5)cc3Cc3cc(OCCn5cc(CO[C@@H]6O[C@H](CO)[C@H](O)[C@H](O)[C@H]6O)nn5)c(cc3OCCn3cc(CO[C@@H]5O[C@H](CO)[C@H](O)[C@H](O)[C@H]5O)nn3)Cc3cc(OCCn5cc(CO[C@@H]6O[C@H](CO)[C@H](O)[C@H](O)[C@H]6O)nn5)c(cc3OCCn3cc(CO[C@@H]5O[C@H](CO)[C@H](O)[C@H](O)[C@H]5O)nn3)Cc3cc(OCCn5cc(CO[C@@H]6O[C@H](CO)[C@H](O)[C@H](O)[C@H]6O)nn5)c(cc3OCCn3cc(CO[C@@H]5O[C@H](CO)[C@H](O)[C@H](O)[C@H]5O)nn3)Cc3cc(OCCn5cc(CO[C@@H]6O[C@H](CO)[C@H](O)[C@H](O)[C@H]6O)nn5)c(cc3OCCn3cc(CO[C@@H]5O[C@H](CO)[C@H](O)[C@H](O)[C@H]5O)nn3)C4)nn2)[C@H](O)[C@@H](O)[C@H]1O | 145 | – | – | –
